# Patent US10590088B2, “4-(benzimidazol-2-ylamino)benzamide derivatives and methods of synthesis thereof” (TRANSLATIONAL DRUG DEVELOPMENT, LLC, priority 2009, dated 2020)
# Legend:
# [1] = tested on: SKOV3 cells; assay: CellTiter-Blue cell viability assay, single agent, 72 hour treatment, SKOV3; format: cell-based; settings: Homo sapiens, SK-OV-3
# Description: (§1) Cell viability in the presence of varying concentrations of the above listed compounds at different time points was used to assess cytotoxicity and the effect of the compounds on cell proliferation.
# (§2) Cell viability was measured by the CellTiter-Blue® cell viability assay Promega (Madison, Wis.). This procedure measures the conversion of the indicator dye (resazurin) to resorufin, an indicator of cell viability. Following treatment, growth media was removed and cells were incubated with 20 μl of CellTiter-Blue® Reagent and growth media for 1-4 hours at 37° C. Fluorescence values were measured at 535/590 nm using a Beckman-Coulter DTX-880 microplate reader.
# (§3) Cells were grown to 70% confluency, trypsinized, counted, and seeded in 96 well flat-bottom plates at a final concentration of 2.5×10^3-5×10^3 cells/well (Day 0). Cells were allowed to incubate in growth media for 24 hours to allow for maximum adhesion. Treatment with the test agents or standard agents began on Day 1 and continued for 72 hours. At the 72 hour timepoint, treatment containing media was removed. Viable cell numbers are quantified by the CellTiter-Blue® cell viability assay as described above. Experiments were repeated at least twice with the same concentrations to determine growth inhibitory activity. Results from these studies were used to calculate an IC50 value (concentration of drug that inhibits cell growth by 50 percent of control) for each compound.
# (§4) For single agent and combination studies, data from each experiment was collected and expressed as % Cell Growth using the following calculation: % Cell Growth=(ftest/fvehicle)×100
# (§5) Where ftest is the fluorescence of the tested sample, and fvehicle is the fluorescence of the vehicle in which the drug is dissolved. Dose response graphs and IC50 values were generated using Prism 4 software (GraphPad) using the following equation: […]
# (§6) Where X is the logarithm of concentration and Y is the response. Y starts at the Bottom and goes to Top with a sigmoid shape.
# [2] = tested on: A2780 cells; assay: CellTiter-Blue cell viability assay, single agent, 72 hour treatment, A2780; format: cell-based; settings: Homo sapiens
# Description: as §1, §2, §3, §4, §5, §6
# [3] = tested on: A2780 human ovarian cells xenograft; assay: In vivo efficacy in human ovarian tumor xenograft model; settings: female Ncr nude mice
# Description: FIG. 1 depicts in vivo efficacy studies of compound #4 (N-hydroxy-4-(1-(2-methoxyethyl)-1H-benzo[d]imidazol-2-ylamino)benzamide) in A2780 xenograft models.
# In vivo efficacy of the disclosed compound was tested through a human ovarian tumor xenograft model. Female Ncr nude mice were inoculated with 1×10^7 A2780 human ovarian cells suspended in a mixture of 50% Matrigel and 50% tissue culture media in a total volume of 100 μl. Four days following inoculation, the mice were pair-matched into four groups of 7-8 mice per group at an average tumor weight of 157 mg per group. Group 1 (G1) was treated with vehicle only daily for 14 days. Group 3 (G3) was treated with Compound ID #4 (T062) at 100 mg/kg daily for 14 days. Group 5 (G5) was treated with Doxil at 3 mg/kg on Day 1 only. Group 6 (G6) was treated with Compound ID #4 (T062) at 50 mg/kg (daily for 14 days) plus Doxil at 3 mg/kg on Day 1 only. Group 7 (G7) was treated with Compound ID #4 (T062) at 100 mg/kg (daily for 14 days) plus Doxil at 3 mg/kg on Day 1 only. Vehicle and Compound ID #4 were administered orally via oral gavage while Doxil was administered intravenously via tail injection. Body weights and tumor measurements were collected twice weekly. Tumor width and length were measured in millimeters and converted to tumor weight (in milligrams) using the formula […]=tumor weight (mg.).
structure (smiles),measurement,setting,value
"CN(C)CCn1c(Nc2ccc(C(=O)NO)cc2)nc2cc(Br)ccc21 [ID 17, 4-(5-bromo-1-(2-(dimethylamino)ethyl)-1H-benzo[d]imidazol-2-ylamino)-N-hydroxybenzamide]",IC50,[1],8.2 µM
"COCCn1c(Nc2ccc(C(=O)NO)cc2)nc2cc(C3CC3)ccc21 [ID 16, 4-(5-cyclopropyl-1-(2-methoxyethyl)-1H-benzo[d]imidazol-2-ylamino)-N-hydroxybenzamide]",IC50,[2],15 µM
same,IC50,[1],4.3 µM
"CC(C)n1c(Nc2ccc(C(=O)NO)cc2)nc2cc(-c3cccnc3)ccc21 [ID 19, N-hydroxy-4-(1-isopropyl-5-(pyridin-3-yl)-1H-benzo[d]imidazol-2-ylamino)benzamide]",IC50,[1],8.1 µM
"O=C(NO)c1ccc(Nc2nc3ccccc3n2CCO)cc1 [ID 11, N-hydroxy-4-(1-(2-hydroxyethyl)-1H-benzo[d]imidazol-2-ylamino)benzamide]",IC50,[2],40 µM
same,IC50,[1],34 µM
"COCCn1c(Nc2ccc(C(=O)NO)cc2)nc2c(F)cccc21 [ID 22, 4-(4-fluoro-1-(2-methoxyethyl)-1H-benzo[d]imidazol-2-ylamino)-N-hydroxybenzamide]",IC50,[2],12.1 µM
same,IC50,[1],17.6 µM
"COCCn1c(Nc2ccc(C(=O)NO)cc2)nc2ccccc21 [ID 4, N-hydroxy-4-(1-(2-methoxyethyl)-1H-benzo[d]imidazol-2-ylamino)benzamide]",In vivo efficacy (tumor weight) versus Doxil as a single agent,[3]; Group 6: Compound ID #4 50 mg/kg oral daily for 14 days plus Doxil 3 mg/kg i.v. on Day 1 only,improved efficacy over Group 5
same,In vivo efficacy (tumor weight) versus Doxil as a single agent,[3]; Group 7: Compound ID #4 100 mg/kg oral daily for 14 days plus Doxil 3 mg/kg i.v. on Day 1 only,improved efficacy over Group 5
"COCCn1c(Nc2ccc(C(=O)Nc3ccccc3N)cc2)nc2ccccc21 [ID 20, N-(2-aminophenyl)-4-(1-(2-methoxyethyl)-1H-benzo[d]imidazol-2-ylamino)benzamide]",IC50,[1],5.8 µM
"COCCn1c(Nc2ccc(C(=O)NO)cc2)nc2cc(Br)ccc21 [ID 10, 4-(5-bromo-1-(2-methoxyethyl)-1H-benzo[d]imidazol-2-ylamino)-N-hydroxybenzamide]",IC50,[2],4.1 µM
same,IC50,[1],6.9 µM
"COCCn1c(Nc2ccc(C(=O)NO)cc2)nc2cc(-c3cncnc3)ccc21 [ID 15, N-hydroxy-4-(1-(2-methoxyethyl)-5-(pyrimidin-5-yl)-1H-benzo[d]imidazol-2-ylamino)benzamide]",IC50,[2],16 µM
same,IC50,[1],48 µM
"COCCn1c(Nc2ccc(C(=O)NO)cc2)nc2ccc(F)cc21 [ID 21, 4-(6-fluoro-1-(2-methoxyethyl)-1H-benzo[d]imidazol-2-ylamino)-N-hydroxybenzamide]",IC50,[2],12.1 µM
same,IC50,[1],17.7 µM
"COCCCn1c(Nc2ccc(C(=O)NO)cc2)nc2ccccc21 [ID 9, N-hydroxy-4-(1-(3-methoxypropyl)-1H-benzo[d]imidazol-2-ylamino)benzamide]",IC50,[2],1.9 µM
"CC(C)n1c(Nc2ccc(C(=O)Nc3ccccc3N)cc2)nc2ccccc21 [ID 1, N-(2-aminophenyl)-4-(1-isopropyl-1H-benzo[d]imidazol-2-ylamino)benzamide]",IC50,[1],4.8 µM
"COCCn1c(Nc2ccc(C(=O)NO)cc2)nc2cc(F)ccc21 [ID 12, 4-(5-fluoro-1-(2-methoxyethyl)-1H-benzo[d]imidazol-2-ylamino)-N-hydroxybenzamide]",IC50,[2],1.4 µM
same,IC50,[1],0.7 µM
"COCCn1c(Nc2ccc(C(=O)NO)cc2)nc2cc(-c3cccc(F)c3)ccc21 [ID 14, 4-(5-(3-fluorophenyl)-1-(2-methoxyethyl)-1H-benzo[d]imidazol-2-ylamino)-N-hydroxybenzamide]",IC50,[2],1.1 µM
same,IC50,[1],0.3 µM
"CC(C)n1c(Nc2ccc(C(=O)NO)cc2)nc2cc(-c3cncnc3)ccc21 [ID 18, N-hydroxy-4-(1-isopropyl-5-(pyrimidin-5-yl)-1H-benzo[d]imidazol-2-ylamino)benzamide]",IC50,[1],21 µM
"COCc1ccc2c(c1)nc(Nc1ccc(C(=O)NO)cc1)n2C(C)C [ID 23, N-hydroxy-4-(1-isopropyl-5-(methoxymethyl)-1H-benzo[d]imidazol-2-ylamino)benzamide]",IC50,[2],22 µM
same,IC50,[1],16 µM
"CC(C)OCCn1c(Nc2ccc(C(=O)NO)cc2)nc2ccccc21 [ID 13, N-hydroxy-4-(1-(2-isopropoxyethyl)-1H-benzo[d]imidazol-2-ylamino)benzamide]",IC50,[2],5.1 µM
same,IC50,[1],1.9 µM
